The record followed here is PMC10096180, “Half-Sandwich Type Platinum-Group Metal Complexes of C-Glucosaminyl Azines: Synthesis and Antineoplastic and Antimicrobial Activities” (Molecules, 2023).

Read-outs that look alike come from different tables or passages of the source.

Data set [1] has as its system vancomycin-resistant Enterococcus (VRE) clinical isolates. Nature of the data set: Broth microdilution MIC, clinical VRE isolates. Type of data set: cell-based, E. faecium. Conditions: 24 h, 0.08–40 μM. The method, then:
(§1) We used a set of clinical isolates of S. aureus and E. faecium that were collected at the Medical Center of the University of Debrecen (Hungary) between 1 January 2018. and 31 December 2020. The clinical isolates were identified using a Microflex MALDI-TOF mass spectrometer (Bruker, Billerica, MA, USA). The antibiotic susceptibility of the isolates was tested following the European Committee on Antimicrobial Susceptibility Testing (EUCAST) guidelines, which were valid at the time of collection.
(§2) Microdilution experiments were performed according to the standards of EUCAST [85]. The bacterial isolates to be tested were grown on Mueller–Hinton agar plates. The inoculum density of bacteria was set at 5.0 × 10^5 CFU/mL in microtiter plates in a final volume of 200 μL Mueller–Hinton broth. The tested concentration range was 0.08–40 μM (10 concentrations, twofold serial dilutions), and a drug-free growth control and an inoculum-free negative control were included. The inoculated plates were incubated for 24 h at 37 °C, then visually assessed. Minimum inhibitory concentration (MIC) was defined as the lowest concentration with a 50%≤ inhibitory effect compared to the growth control. All experiments were performed at least twice in duplicate.

Data set [2] concerns Enterococcus faecalis (ATCC29212). Nature of the data set: Broth microdilution MIC, reference strain. Type of data set: cell-based. Particulars: 24 h, tested range 0.08–40 μM, read-out: MIC E. faecalis ATCC 29,212. The procedure: (§3) The reference strains of Staphylococcus aureus (ATCC29213) and Enterococcus faecalis (ATCC29212) were purchased from the ATCC (Manassas, VA, USA).
as §2
Background: Broth dilution looks for growth in wells or tubes with falling amounts of substance.

Data set [3] deals with Staphylococcus aureus (ATCC29213). Description: Broth microdilution MIC, reference strain. The class given is cell-based. Conditions: 0.08–40 μM, read-out: MIC S. aureus ATCC 29213. The procedure: as §3, §2
In data set [4] the test system is methicillin-resistant Staphylococcus aureus (MRSA) clinical isolates. Nature of the data set: Broth microdilution MIC, clinical MRSA isolates. The class given is cell-based. Conditions: 24 h, 0.08–40 μM. The method, then:
as §1, §2

The test system of data set [5] is A2780 cells. Description: SRB binding assay, cytostasis, 48 h treatment. The class given is cell-based. Particulars: for A2780 SRB Max Inhibition: up to 100 μM, ND = not detectable. The procedure: (§4) The complexes described above are intended to replace registered platinum complexes. Platinum complexes constitute the core of the chemotherapy regimen used in ovarian cancer; therefore, we used a cellular model of ovarian cancer, A2780, and primary human dermal fibroblasts as models of non-transformed cells (controls). For the characterization of the complexes, we used an MTT assay after 4 h of treatment for the detection of early toxicity and an SRB assay 48 h after treatment for the detection of cytostasis.
An SRB assay measures protein content of cells in correlation with the cell number in an assay well and can therefore be used to assess cell proliferation or long-term cytostasis. Cells were seeded in 96-well plates the day before the assay. Cells were treated with the compounds for 48 h. Then medium was removed, and cells were fixed with 10% trichloroacetic acid. Fixed cells were washed in distilled water 3 times, followed by staining with SRB (0.4 m/V% dissolved in 1% acetic acid) for 10 min. Stained cells were washed in 1% acetic acid 5 times; acetic acid was removed, and cells were left to dry. Protein-bound SRB was released by adding 100 μL 10 mM Tris base. Plates were measured in a plate photometer (Thermo Scientific Multiscan GO spectrophotometer, Waltham, MA, USA) at 540 nm. On each plate, wells were designed to contain vehicle-treated cells. In calculations, the readings for these wells were considered to be 1, and all readings were expressed relative to these values.
(§5) Statistical analysis was performed using version 8.0.1 of GraphPad Prism. Values were tested for normal distribution using the Shapiro–Wilk normality test. Nonlinear regression was performed using the built-in “[Inhibitor] vs. response—Variable slope (four parameters), least square fit” utility of GraphPad, which yielded IC50 and Hill slope values if the sigmoid curves reached a plateau of inhibition and there was no decrease between two subsequent data points or when inhibition was over 90%. In other cases, the percentage of inhibition was taken for the maximum concentration (100 μM).
(In SRB staining, fixed cells bind dye roughly in proportion to their protein.)

Data set [6] concerns primary human dermal fibroblasts. Description: MTT reduction assay, early toxicity, 4 h treatment. Type of data set: cell-based. Particulars: up to 100 μM. The method, then: as §4
(§6) An MTT reduction assay was measures the activity of mitochondrial complex I and can be used to detect toxicity. The assay was performed in a manner similar to that described in [84]. Briefly, cells were plated in 96-well plates the day before the assay. Cells were treated with the compounds for 4 h; then, MTT was added to a 0.5 mg/mL final concentration, and cells were incubated at 37 °C in a cell incubator for 40–60 min as a function of the cell line being assessed. Culture medium was removed, the reduced MTT dye was dissolved in dimethyl-sulfoxide, and plates were measured in a plate photometer (Thermo Scientific Multiscan GO spectrophotometer, Waltham, MA, USA) at 540 nm. On each plate, wells were designed to contain vehicle-treated cells. In calculations, the readings for these wells were considered to 1, and all readings were expressed relative to these values.
as §5

Data set [7] relates to A2780 cells. Description: MTT reduction assay, early toxicity, 4 h treatment. Type of data set: cell-based. The procedure: as §4, §6, §5
In general terms: Tetrazolium assays rely on reduction of a dye to a coloured formazan, in cell work by metabolically active cells.

A short description of data set [8]: Distribution coefficient (logD), n-octanol-PBS. Conditions: n-octanol-PBS (pH = 7.4) system. Type of data set: physicochemical. The method, then:
The logD values of the newly synthesized complexes were determined according to a procedure described in our previous publications. page 64: Ir-7b +1.17 Rh-7b +1.41 Ru-7c +1.31 Os-7c +1.59 Ir-7c +1.40 Rh-7c +1.13 Ru-7d +1.26 Os-7d +1.42 Ir-7d +1.30 Rh-7d +1.04 Ru-7e +2.22 Os-7e +2.21 Ir-7e +1.39 Rh-7e +1.66 *logD was determined in an n-octanol-PBS (pH = 7.4) system 64 (14 pictures or pasted objects on this page, not shown here)

[9] abbreviates: clinical isolate 25,051 VRE, read-out: MIC 25,051 VRE.
The mark [10] stands for this setting: clinical isolate 25,498 VRE, read-out: MIC 25,498 VRE.
The mark [11] stands for this setting: clinical isolate 27,085 VRE, read-out: MIC 27,085 VRE.
Setting [12] is: clinical isolate 20,426 MRSA, read-out: MIC 20,426 MRSA.
Where [13] appears, read: clinical isolate 24,035 MRSA, read-out: MIC 24,035 MRSA.
Setting [14] is: clinical isolate 24,268 MRSA, read-out: MIC 24,268 MRSA.
The mark [15] stands for this setting: clinical isolate 24,272 MRSA, read-out: MIC 24,272 MRSA.
[16] abbreviates: clinical isolate 24,328 MRSA, read-out: MIC 24,328 MRSA.
The mark [17] stands for this setting: clinical isolate 24,408 MRSA, read-out: MIC 24,408 MRSA.
Setting [18] is: inhibition at maximum concentration (100 μM) where no plateau, ND = not detectable.

As for `Cc1c(C)c(C)[c-](C)c1C.F[P-](F)(F)(F)(F)F.NC1C(c2cccnn2)OC(COC(=O)c2ccccc2)C(OC(=O)c2ccccc2)C1OC(=O)c1ccccc1.[Cl][Ir+2]` (mixture of isomers) [Ir-7b], the MIC was 40 µM in data set [1] (setting [9]); 40 µM in data set [1] (setting [10]); 40 µM in data set [1] (setting [11]); 40 µM in data set [2]; over 40 µM in data set [3] (24 h); 40 µM in data set [4] (setting [12]). Also, the MIC in data set [4] (setting [13]), in data set [4] (setting [14]), in data set [4] (setting [15]), in data set [4] (setting [16]) and in data set [4] (setting [17]) was 40 µM throughout. Further, in data set [5], the “A2780 SRB Max Inhibition” value worked out at 77.58%. Further, in data set [6], the “Fibroblast MTT Max Inhibition” value amounted to 27.22%. For the same compound, the “A2780 MTT Max Inhibition” value in data set [7] (setting [18]) amounted to 53.39%. Besides, the log distribution coefficient (logD) in data set [8] turned out to be 1.17.
In the case of `Cc1c(C)c(C)[c-](C)c1C.F[P-](F)(F)(F)(F)F.N[C@@H]1[C@@H](OCc2ccccc2)[C@H](OCc2ccccc2)[C@@H](COCc2ccccc2)O[C@H]1c1ccccn1.[Cl][Rh+2]` [Rh-3a], the MIC in data set [1] (setting [9]), in data set [1] (setting [10]), in data set [1] (setting [11]), in data set [2], in data set [3] (24 h) and in data set [4] (setting [12]) was over 40 µM throughout. Besides, the MIC in data set [4] (setting [13]), in data set [4] (setting [14]), in data set [4] (setting [15]), in data set [4] (setting [16]) and in data set [4] (setting [17]) was over 40 µM each time. Also, the IC50 in data set [5] is 9.81 µM. In data set [5], the “A2780 SRB Max Inhibition” value was over 90%. For the same compound, the “Fibroblast MTT Max Inhibition” value in data set [6] is given as 37.82%. Further, in data set [8], the logD is 1.64.
For the compound `Cc1c(C)c(C)[c-](C)c1C.F[P-](F)(F)(F)(F)F.NC1C(c2cccnn2)OC(COC(=O)c2ccccc2)C(OC(=O)c2ccccc2)C1OC(=O)c1ccccc1.[Cl][Rh+2]` (mixture of isomers) [Rh-7b], the MIC in data set [1] (setting [9]), in data set [1] (setting [10]), in data set [1] (setting [11]), in data set [2], in data set [3] (24 h) and in data set [4] (setting [12]) was over 40 µM throughout. In addition, the MIC in data set [4] (setting [13]), in data set [4] (setting [14]), in data set [4] (setting [15]), in data set [4] (setting [16]) and in data set [4] (setting [17]) was over 40 µM each time. This compound came in with a concentration for half-maximal inhibition (IC50) in data set [5] of 32 µM. For the same compound, in data set [5], the “A2780 SRB Max Inhibition” value is over 90%. The “Fibroblast MTT Max Inhibition” value in data set [6] turned out to be 11.39%. Moreover, in data set [7] (setting [18]), the “A2780 MTT Max Inhibition” value was 62.85%. The compound further came in with a log distribution coefficient (logD) in data set [8] of 1.41.
For the compound `Cc1ccc(C(C)C)cc1.F[P-](F)(F)(F)(F)F.N[C@@H]1[C@@H](OCc2ccccc2)[C@H](OCc2ccccc2)[C@@H](COCc2ccccc2)O[C@H]1c1cnccn1.[Cl][Os+]` [Os-3d], the MIC in data set [1] (setting [9]) is reported as 40 µM; in data set [1] (setting [10]) it was 40 µM; in data set [1] (setting [11]), 40 µM; in data set [2], over 40 µM; in data set [3] (24 h), 40 µM; in data set [4] (setting [12]), 40 µM. In addition, the MIC in data set [4] (setting [13]), in data set [4] (setting [14]), in data set [4] (setting [15]), in data set [4] (setting [16]) and in data set [4] (setting [17]) was 40 µM throughout. For the same compound, the IC50 worked out at 6.83 µM in data set [5] and 32.3 µM in data set [7]. Besides, in data set [5], the “A2780 SRB Max Inhibition” value is over 90%. For the same compound, the “Fibroblast MTT Max Inhibition” value in data set [6] is on record as 73.24%. Besides, the “A2780 MTT Max Inhibition” value in data set [7] (setting [18]) is reported as 86.83%. In data set [8], this compound yielded a logD of 2.64.
For the compound `N[C@@H]1[C@@H](OC(=O)c2ccccc2)[C@H](OC(=O)c2ccccc2)[C@@H](COC(=O)c2ccccc2)O[C@H]1c1cccnn1` [Complex 7b, 3-(2′-Amino-2′-deoxy-3′,4′,6′-tri-O-benzoyl-β-D-glucopyranosyl)pyridazine], the minimal inhibitory concentration (MIC) in data set [1] (Enterococcus, clinical isolate 25,051 VRE, read-out: MIC 25,051 VRE) was over 40 µM; in data set [1] (Enterococcus, clinical isolate 25,498 VRE, read-out: MIC 25,498 VRE), over 40 µM; in data set [1] (Enterococcus, clinical isolate 27,085 VRE, read-out: MIC 27,085 VRE), over 40 µM; in data set [2] (Enterococcus faecalis), over 40 µM; in data set [3] (Staphylococcus aureus, ATCC29213, 24 h) it was over 40 µM; in data set [4] (Staphylococcus aureus, clinical isolate 20,426 MRSA, read-out: MIC 20,426 MRSA), over 40 µM. The minimum inhibitory concentration (MIC) is over 40 µM in data set [4] (Staphylococcus aureus, clinical isolate 24,035 MRSA, read-out: MIC 24,035 MRSA); over 40 µM in data set [4] (Staphylococcus aureus, clinical isolate 24,268 MRSA, read-out: MIC 24,268 MRSA); over 40 µM in data set [4] (Staphylococcus aureus, clinical isolate 24,272 MRSA, read-out: MIC 24,272 MRSA); over 40 µM in data set [4] (Staphylococcus aureus, clinical isolate 24,328 MRSA, read-out: MIC 24,328 MRSA); over 40 µM in data set [4] (Staphylococcus aureus, clinical isolate 24,408 MRSA, read-out: MIC 24,408 MRSA). In addition, the “A2780 SRB Max Inhibition” value in data set [5] is on record as 18.38%. Further, the “Fibroblast MTT Max Inhibition” value in data set [6] was determined as 11.39%. The inhibition at 100 µM in data set [7] (Homo sapiens, inhibition at maximum concentration (100 μM) where no plateau, ND = not detectable, read-out: A2780 MTT Max Inhibition) came out at 9.12%.

By MIC is commonly meant the lowest concentration that inhibits growth of the organism. As usually defined, the logD is lipophilicity at a set pH, counting ionised and neutral species. Read a low logD as a more hydrophilic compound. In general, IC50 refers to the midpoint of a concentration-inhibition curve. As a reminder, the inhibition is the percentage by which the read-out fell short of the control.
